Test results reported in ChEMBL document CHEMBL1201862, “PubChem BioAssay data set” (2004).
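Assay format: 96-well plates, 48-hour exposure. Abbreviation: GI50, concentration required for 50% inhibition of growth.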 Active and inactive are the calls of the source. No stated cut-off is given here; in the data, active = GI50 up to about 1.1 µM and inactive = higher.

Legend:
Assay in all cases: DTP human tumour cell line panel, 48 h
SN12C = system: SN12C
NCI-H226 = system: NCI-H226
MDA-N = system: MDA-N
UO-31 = system: UO-31
KM12 = system: KM12
U-251 = system: U-251
HOP-62 = system: HOP-62
SNB-19 = system: SNB-19
HT-29 = system: HT-29
LOX IMVI = system: LOX IMVI
CCRF-CEM = system: CCRF-CEM
SF-295 = system: SF-295
SR = system: SR
OVCAR-5 = system: OVCAR-5
786-0 = system: 786-0
BT-549 = system: BT-549
SF-268 = system: SF-268
MCF7 = system: MCF7
HCT-15 = system: HCT-15
NCI-H460 = system: NCI-H460

SMILES	GI50 (SN12C)	GI50 (NCI-H226)	GI50 (MDA-N)	GI50 (UO-31)	GI50 (KM12)	GI50 (U-251)	GI50 (HOP-62)	GI50 (SNB-19)	GI50 (HT-29)	GI50 (LOX IMVI)	GI50 (CCRF-CEM)	GI50 (SF-295)	GI50 (SR)	GI50 (OVCAR-5)	GI50 (786-0)	GI50 (BT-549)	GI50 (SF-268)	GI50 (MCF7)	GI50 (HCT-15)	GI50 (NCI-H460)
[O-][N+](CCO)(CCO)c1ncnc2[nH]cnc12	> 100 µM (inactive)	> 100 µM (inactive)	> 100 µM (inactive)	> 100 µM (inactive)	> 100 µM (inactive)	> 100 µM (inactive)	> 100 µM (inactive)	> 100 µM (inactive)	> 100 µM (inactive)	> 100 µM (inactive)	> 100 µM (inactive)	> 100 µM (inactive)	> 100 µM (inactive)	> 100 µM (inactive)	> 100 µM (inactive)	> 100 µM (inactive)	> 100 µM (inactive)	76.6 µM (inactive)	> 100 µM	
CC(=O)NNc1nc(-c2ccc([N+](=O)[O-])cc2)c(C#N)c(=O)n1C	> 100 µM (inactive)		86.7 µM (inactive)	37.6 µM (inactive)	54.1 µM (inactive)	20.8 µM (inactive)	26.9 µM (inactive)	> 100 µM (inactive)	99.3 µM (inactive)	16.9 µM (inactive)	50.7 µM (inactive)	47.5 µM (inactive)	13.9 µM (inactive)	27.5 µM (inactive)	22.1 µM (inactive)	1.88 µM (inactive)	33.1 µM (inactive)	28.5 µM (inactive)	29.3 µM	> 100 µM (inactive)
CC(C)(C)OC(=O)NCCC1CN(C(=O)c2ccccc2)c2ccccc21 (stereo not drawn)			21.6 µM (inactive)	23.7 µM (inactive)	31.5 µM (inactive)	40 µM (inactive)	25.8 µM (inactive)	32 µM (inactive)	23.2 µM (inactive)			29.4 µM (inactive)	7.82 µM (inactive)	32.7 µM (inactive)	35.3 µM (inactive)	25.1 µM (inactive)	41.3 µM (inactive)	28.2 µM (inactive)	29.9 µM	22.9 µM (inactive)
CN1CCN(CCCBr)CC1	> 100 µM (inactive)	> 100 µM (inactive)	> 100 µM (inactive)	> 100 µM (inactive)	> 100 µM (inactive)	> 100 µM (inactive)	> 100 µM (inactive)	> 100 µM (inactive)	> 100 µM (inactive)	> 100 µM (inactive)	> 100 µM (inactive)	> 100 µM (inactive)		> 100 µM (inactive)	> 100 µM (inactive)	> 100 µM (inactive)	> 100 µM (inactive)	> 100 µM (inactive)	> 100 µM	> 100 µM (inactive)
N#Cc1c(Cl)c2cc([N+](=O)[O-])ccc2n2c1nc1ccccc12	4.44 µM (inactive)	10.6 µM (inactive)	7.19 µM (inactive)	2.58 µM (inactive)	9.91 µM (inactive)	7.57 µM (inactive)	18.2 µM (inactive)	13.6 µM (inactive)	4.46 µM (inactive)	1.87 µM (inactive)	0.57 µM (active)	26.8 µM (inactive)		4.05 µM (inactive)	2.01 µM (inactive)	19.5 µM (inactive)	5.71 µM (inactive)	1.17 µM (inactive)	0.933 µM	14.6 µM (inactive)
COc1ccc2c(c1)CN1C(=N2)CSC1c1cc([N+](=O)[O-])ccc1Cl (stereo not drawn)	65.6 µM (inactive)	42 µM (inactive)	17.8 µM (inactive)	41.1 µM (inactive)	28.1 µM (inactive)	40.6 µM (inactive)	75.2 µM (inactive)	52.6 µM (inactive)	24.7 µM (inactive)	31.3 µM (inactive)		39.4 µM (inactive)	33.8 µM (inactive)	58.5 µM (inactive)	37.9 µM (inactive)	22.5 µM (inactive)	46.6 µM (inactive)	28.2 µM (inactive)	30.6 µM	31.9 µM (inactive)
CO/C(N)=C(C#N)/N=C/c1cccs1	> 100 µM (inactive)	> 100 µM (inactive)	27.4 µM (inactive)	> 100 µM (inactive)	> 100 µM (inactive)	74 µM (inactive)	98.4 µM (inactive)	> 100 µM (inactive)	25.9 µM (inactive)	42.6 µM (inactive)	66.4 µM (inactive)	> 100 µM (inactive)		> 100 µM (inactive)	> 100 µM (inactive)	95.1 µM (inactive)	> 100 µM (inactive)	24.4 µM (inactive)	45.7 µM	> 100 µM (inactive)
Nc1nc(N)c2ncn(Cc3c(Cl)cccc3Cl)c2n1	> 100 µM (inactive)	> 100 µM (inactive)	> 100 µM (inactive)	> 100 µM (inactive)	> 100 µM (inactive)	> 100 µM (inactive)	> 100 µM (inactive)	> 100 µM (inactive)	> 100 µM (inactive)	> 100 µM (inactive)	> 100 µM (inactive)	> 100 µM (inactive)		> 100 µM (inactive)	> 100 µM (inactive)	> 100 µM (inactive)	> 100 µM (inactive)	> 100 µM (inactive)	> 100 µM	
